Experimental data reported in patent US4435569A, “5-[Substituted amino methyl]pyrrolo[2,3-d]pyrimidine-4-one” (Takeda Chemical Industries, Ltd., priority 1981, dated 1984).
Counter-ions that a name gives are not always drawn.

Key:
[1] = system: Sarcoma 180; assay: Growth inhibition of subcutaneously transplanted Sarcoma 180 in ICR mouse (tumor weight); assay type: in vivo; details: 1×10^6 cells s.c., 0.5 mg/kg i.p. once daily for 20 consecutive days from 24 h, day 35
Description: (§1) One×10^6 Sarcoma 180 cells were subcutaneously transplanted into the right groin of an ICR mouse weighing about 20 grams and starting 24 hours after transplantation, 0.5 mg/kg of the compound of Example 1 in distilled water for injection was intraperitoneally administered once daily for 20 consecutive days. On day 35 after transplantation, the tumorous node was incised, weighed and compared with the specimen of the control (without medication) group. The percent inhibition was 58% relative to the control.

[2] = system: Ehlrich carcinoma cells; assay: Growth inhibition of transplanted Ehrlich carcinoma in mice (Experimental Example 1 repeated); assay type: in vivo, mouse; details: mice with Ehrlich carcinoma; as Experimental Example 1: 0.5 mg/kg i.p. once daily for 20 days; day 35
Description: as §1
The experiment described in Experimental Example 1 was repeated except that mice transplanted with Ehlrich carcinoma cells were employed.

[3] = system: L5178Y cells; assay: Inhibitory effect upon the multiplication of tumor cells (L5178Y); assay type: cell-based; details: Mus musculus, RPMI1640 + 10% fetal calf serum, 48 hours, 37° C., concentration giving cell count of 50% of control, read-out: ED50 (the source's name)
Description: Inhibitory effect upon the multiplication of tumor cells
The inhibitory effects of compound (I) upon the multiplication of cells were detected using L5178Y cells (tumor cell) in RPMI1640 medium+10% fetal calf serum for 48 hours at 37° C.
The result was expressed in the concentration of the drug giving a cell count of 50% (ED50) with the average number of cells for the control (not medicated) group on the 2nd day being taken as 100%.

Structure (SMILES)	IC50 [3] [µg/mL]	percent inhibition (tumor weight relative to control) [1] [%]	percent inhibition rate (tumor weight relative to control) [2] [%]
CCCNCc1c[nH]c2nc(N)[nH]c(=O)c12 [Example 1, 2-amino-5-propylaminomethylpyrrolo[2,3-d]pyrimidin-4-one (dihydrochloride)]		58	75
Nc1nc2[nH]cc(CNC3CCCC3)c2c(=O)[nH]1 [Example 2, 2-amino-5-cyclopentylaminomethylpyrrolo[2,3-d]pyrimidin-4-one(dihydrochloride)]	40		
Nc1nc2[nH]cc(CN[C@H]3C=C[C@H](O)[C@@H]3O)c2c(=O)[nH]1 [Q base, reference compound]	> 200		

Now from value to compound, other results behind:

IC50 [3] [µg/mL]	Structure (SMILES)	percent inhibition (tumor weight relative to control) [1] [%]	percent inhibition rate (tumor weight relative to control) [2] [%]
120	Nc1nc2[nH]cc(CN3CCCCC3)c2c(=O)[nH]1 [Example 3, 2-amino-5-piperidinomethylpyrrolo[2,3-d]pyrimidin-4-one (dihydrochloride)]		
30	Nc1nc2[nH]cc(CNCc3ccccc3)c2c(=O)[nH]1 [Example 4, 2-amino-5-benzylaminomethylpyrrolo[2,3-d]pyrimidin-4-one]		
